Experimental data as given in US20100062465A1, “Detection of Histone Deacetylase Inhibition” (priority 2006, published 2010).

Tested on: HDAC
Assay: Fluor de Lys fluorometric assay of HDAC activity in PC3 cells
Assay type: cell-based, human
Details: 24 h
Description: Briefly 20×10^3 cells/well were seeded in 96 well plates and incubated for 24 h with (a) 1 mM BLT (b) FSAHA at 2, 5, 10 μM (c) SAHA at 2, 5, 10 μM (d) FSAHA at 2, 5, 7, 8, 9, 10 μM in the presence of 1 mM BLT (e) FSAHA at 2, 5, 7, 8, 9, 10 μM in the presence of vehicle (DMSO). The Fluor de Lys substrate was then added for 1 h, medium removed, cells rinsed with PBS and incubated for 10 minutes with the Fluor-de-Lys developer, and fluorescence read at 460 nm using the Tecan microplate reader as above. Results were normalized to cell density as determined using the WST-1 assay in the same 96 well plate.

O=C(CCCCCCC(=O)Nc1ccccc1)NO [SAHA, suberoylanilide hydroxamic acid, reference compound]
HDAC activity (relative to controls) (2 μM): 84±10%
HDAC activity (relative to controls) (5 μM): 51±3%
HDAC activity (relative to controls) (10 μM): 29±3%
